molecular target: TcdA (Clostridioides difficile, UniProt P16154); conditions: peptides on beads; 0.2 µM TcdA-AF594; qualitative
Sequence (P16154 whole entry, looked up): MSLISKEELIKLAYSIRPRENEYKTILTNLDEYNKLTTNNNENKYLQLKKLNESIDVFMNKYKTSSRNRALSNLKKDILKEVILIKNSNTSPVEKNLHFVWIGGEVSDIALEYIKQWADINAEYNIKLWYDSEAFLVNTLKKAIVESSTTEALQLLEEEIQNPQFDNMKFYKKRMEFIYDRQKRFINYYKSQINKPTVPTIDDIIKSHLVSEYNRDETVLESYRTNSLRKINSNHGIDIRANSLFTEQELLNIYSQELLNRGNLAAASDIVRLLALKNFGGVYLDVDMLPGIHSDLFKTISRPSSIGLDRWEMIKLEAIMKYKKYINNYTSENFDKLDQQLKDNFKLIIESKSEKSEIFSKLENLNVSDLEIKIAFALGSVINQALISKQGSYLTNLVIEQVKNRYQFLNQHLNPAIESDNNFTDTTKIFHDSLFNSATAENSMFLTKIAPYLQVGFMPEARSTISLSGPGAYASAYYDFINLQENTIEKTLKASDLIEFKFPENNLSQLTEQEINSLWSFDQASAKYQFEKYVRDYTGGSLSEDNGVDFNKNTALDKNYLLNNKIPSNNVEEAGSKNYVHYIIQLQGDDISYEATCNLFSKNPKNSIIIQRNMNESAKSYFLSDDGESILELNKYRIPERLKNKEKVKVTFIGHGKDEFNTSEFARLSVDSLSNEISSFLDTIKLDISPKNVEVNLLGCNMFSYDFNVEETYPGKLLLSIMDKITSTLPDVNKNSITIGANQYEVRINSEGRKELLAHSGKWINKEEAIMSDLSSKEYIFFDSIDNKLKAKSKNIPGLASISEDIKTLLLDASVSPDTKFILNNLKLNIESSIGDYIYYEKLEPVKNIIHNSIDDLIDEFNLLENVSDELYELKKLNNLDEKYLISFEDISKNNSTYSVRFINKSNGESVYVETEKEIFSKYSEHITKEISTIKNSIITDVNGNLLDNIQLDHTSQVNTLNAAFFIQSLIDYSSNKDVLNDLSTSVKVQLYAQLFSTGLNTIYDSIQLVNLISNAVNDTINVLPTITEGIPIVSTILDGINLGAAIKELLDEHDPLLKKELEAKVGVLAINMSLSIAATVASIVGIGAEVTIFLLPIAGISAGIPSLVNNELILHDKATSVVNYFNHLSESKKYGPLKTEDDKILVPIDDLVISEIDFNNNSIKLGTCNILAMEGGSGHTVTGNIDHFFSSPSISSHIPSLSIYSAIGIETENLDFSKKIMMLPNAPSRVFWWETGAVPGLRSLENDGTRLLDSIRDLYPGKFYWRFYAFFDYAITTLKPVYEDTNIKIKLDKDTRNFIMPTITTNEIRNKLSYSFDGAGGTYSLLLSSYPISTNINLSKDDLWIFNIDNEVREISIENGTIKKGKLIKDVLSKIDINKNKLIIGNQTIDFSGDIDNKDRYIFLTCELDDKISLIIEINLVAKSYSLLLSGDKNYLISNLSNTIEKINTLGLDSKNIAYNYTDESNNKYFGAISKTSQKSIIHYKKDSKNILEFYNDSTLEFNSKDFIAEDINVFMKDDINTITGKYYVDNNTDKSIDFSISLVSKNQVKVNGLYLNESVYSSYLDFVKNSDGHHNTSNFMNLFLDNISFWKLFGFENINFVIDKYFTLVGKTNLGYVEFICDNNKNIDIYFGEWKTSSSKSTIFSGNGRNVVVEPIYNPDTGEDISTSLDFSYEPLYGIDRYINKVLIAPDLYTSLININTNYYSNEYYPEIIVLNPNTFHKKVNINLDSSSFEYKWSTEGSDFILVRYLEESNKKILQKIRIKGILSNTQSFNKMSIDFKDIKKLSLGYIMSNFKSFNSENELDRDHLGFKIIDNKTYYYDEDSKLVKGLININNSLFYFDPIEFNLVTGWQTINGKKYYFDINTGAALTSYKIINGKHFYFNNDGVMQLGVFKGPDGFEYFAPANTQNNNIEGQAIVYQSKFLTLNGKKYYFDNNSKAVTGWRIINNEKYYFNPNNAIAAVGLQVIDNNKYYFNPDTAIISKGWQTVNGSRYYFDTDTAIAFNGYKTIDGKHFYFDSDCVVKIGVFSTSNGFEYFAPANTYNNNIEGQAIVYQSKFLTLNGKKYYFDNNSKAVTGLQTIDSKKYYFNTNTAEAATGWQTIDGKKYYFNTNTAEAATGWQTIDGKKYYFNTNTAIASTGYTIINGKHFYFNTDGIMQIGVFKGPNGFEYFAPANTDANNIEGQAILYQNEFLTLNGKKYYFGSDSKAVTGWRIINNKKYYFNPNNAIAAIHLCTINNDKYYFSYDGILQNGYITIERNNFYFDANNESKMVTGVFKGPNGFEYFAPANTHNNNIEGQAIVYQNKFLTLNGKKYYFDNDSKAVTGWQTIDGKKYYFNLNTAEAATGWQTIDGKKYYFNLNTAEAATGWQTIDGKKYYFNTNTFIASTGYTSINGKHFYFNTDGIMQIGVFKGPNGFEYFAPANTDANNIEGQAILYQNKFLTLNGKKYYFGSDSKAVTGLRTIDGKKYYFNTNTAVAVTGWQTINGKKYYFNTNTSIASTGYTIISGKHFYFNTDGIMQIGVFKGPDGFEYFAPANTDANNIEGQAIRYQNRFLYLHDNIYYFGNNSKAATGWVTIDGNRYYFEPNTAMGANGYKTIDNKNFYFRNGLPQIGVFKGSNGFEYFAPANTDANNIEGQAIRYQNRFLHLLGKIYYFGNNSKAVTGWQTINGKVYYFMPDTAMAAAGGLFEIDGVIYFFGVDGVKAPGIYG

Sequence	TcdA binding performance in bead-based screen
MFWEHRHR [SA4]	performed significantly better than those from Case 3 (SA6, SA7)
QDWMRRHW [SA2]	performed significantly better than those from Case 3 (SA6, SA7)
EFWMGRHH [SA5]	performed significantly better than those from Case 3 (SA6, SA7)
